Source: PMC5363373, “Zirconium tetraazamacrocycle complexes display extraordinary stability and provide a new strategy for zirconium-89-based radiopharmaceutical development” (Chemical Science, 2016)

Assays:
PET/CT imaging = format: in vivo, female NIH Swiss mice; conditions: normal mice; for Route of excretion: PET imaging; for PET: radioactivity at 4 h after injection / PET: radioactivity at 24 h after injection: static imaging
Method: PET/CT Imaging. PET imaging with 89Zr-DFO or 89Zr-DOTA was performed on healthy female NIH Swiss mice (6-8 wk old, n=6) using a small animal PET/CT scanner (eXplore VISTA model, GE Healthcare, Waukesha, WI). Before imaging, each mouse was anesthetized by inhalation of isoflurane mixed with oxygen gas (3% isoflurane for induction and 1-2% for maintenance) and a tail vein catheter was placed on the tail. The mouse was then positioned in the imaging cradle and a CT scan was performed for the subsequent attenuation correction and anatomical colocalization. After the CT scan, 89Zr-DFO or 89Zr-DOTA (11.1-12.5 MBq (300-338 µCi) in 100 µL saline/ mouse) was administered through the tail vein catheter, and a dynamic PET scan was simultaneously initiated and acquired for 1 hour to record the initial distribution and pharmacokinetics. Mice were re-anesthetized at 2, 4 and 24 hours, and a static PET scan was acquired for 20 min as late-phase scans. PET images were reconstructed using 2D ordered subset expectation maximization (2D-OSEM) algorithms with random, scatter, and attenuation corrections and then coregistered with the CT image. The PET system was calibrated using a Zr-89 phantom with known activity. Standard uptake value (SUV = [(nCi/mL) x (animal wt. (g))/ injected dose (nCi)]) and the measure of %ID/g was then calculated voxel-wise with the calibration factor and normalization to the injected dose and animal body weight. For dynamic scans, data were binned into 19 time frames with the following schemes: 6x10s, 2x30s, 3x60s, 5x5min, 3x10min. The tissue uptake curves were generated from the dynamic scans with regions of interest (ROIs) manually placed in heart, liver, kidney, bone, and muscle. Biodistribution data at 2, 4 and 24 hours were obtained from the PET images, with regions of interest placed in corresponding organs or tissues.

[1] = Behaviour of the complex in solution in vitro; format: physicochemical; conditions: unless a low concentration of surfactant was included

| Route of excretion (PET/CT imaging) | PET: radioactivity at 24 h after injection (PET/CT imaging) | SMILES | PET: radioactivity at 4 h after injection (PET/CT imaging) | Behaviour in solution without surfactant [1] |
| --- | --- | --- | --- | --- |
| excreted renally | barely above background levels | O=C1CN2CCN3CCN4CCN(CC2)CC(=O)[O][89Zr]([O]1)([O]C(=O)C3)[O]C(=O)C4 [89Zr-DOTA] | nearly all the radioactivity was excreted | – |
| excreted renally | still visible | CC(=O)N1CCCCCNC(=O)CCC(=O)N2CCCCCNC(=O)CCC(=O)N(CCCCCN)[O][89Zr+]([O]1)[O]2 [89Zr-DFO, reference compound] | more radioactivity accumulated in the kidneys | – |
| – | – | NC(=O)CN1CCN(CC(N)=O)CCN(CC(N)=O)CCN(CC(N)=O)CC1.[89Zr+4] [89Zr-DOTAM] | – | aggregated and precipitated out of solution |
